Series [1] concerns the target T1, 3α-HSD (Rattus norvegicus, UniProt P23457).
T1 construct: The homogeneous 3α-HSD of rat liver cytosol; from tissue; host or cells: rat liver cytosol
T1 sequence (P23457 1-322): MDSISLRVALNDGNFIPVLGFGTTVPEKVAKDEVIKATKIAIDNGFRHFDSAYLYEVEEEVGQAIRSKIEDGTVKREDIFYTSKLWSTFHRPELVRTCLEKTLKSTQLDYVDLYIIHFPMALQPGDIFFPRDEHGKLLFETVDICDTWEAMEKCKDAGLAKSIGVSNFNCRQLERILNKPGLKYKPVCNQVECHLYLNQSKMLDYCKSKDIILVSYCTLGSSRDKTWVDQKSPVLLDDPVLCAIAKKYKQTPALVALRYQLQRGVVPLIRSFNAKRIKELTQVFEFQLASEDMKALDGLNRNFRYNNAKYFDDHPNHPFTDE
Description: Competitive inhibition of androsterone oxidation catalyzed by 3α-HSD, initial velocity conditions, method of Dixon. The format is biochemical. As to conditions: inhibition constants under initial velocity conditions, NADH formation at 340 nm, pH 7.0.
Description: Initial rates were determined spectrophotometrically by measuring the rate of NADH formation at 340 nM over 5 minutes in an assay containing 2.3 mM AND^+ in 0.1 M potassium phosphate buffer pH 7.0, with 4% acetonitrile (v/v) as a cosolvent in a 1 ml system. The assay was started by the addition of enzyme. […] From the slope of this plot, the Ki was determined.

For series [2], the target named is T1, 3α-HSD. Description: Time and concentration dependent inactivation of 3α-HSD, method of Kitz and Wilson. Type of series: biochemical. Conditions: for t1/2 life for the enzyme at saturating inactivator concentrations: Kitz and Wilson analysis; for Return of activity of inactivated enzyme by extensive dialysis: after inactivation; for Loss of 3α-HSD activity (inactivation): incubation of enzyme with inactivator; for KI (inactivation): independent determination from time dependent inactivation, 1/kapp vs 1/[Inhibitor], pH 7.0, read-out: Ki (Kitz and Wilson analysis of inactivation). Here is the method: The difference in the Ki 's determined from the two methods can probably be attributed to the difference in the binding order in the enzymatic mechanism.
Inactivation of […] (15 μM) was conducted in incubations (50 μl) of 10 mM potassium phosphate buffer pH 7.0 containing 1 mM EDTA and 4% acetonitrile as a cosolvent. Enzyme activity was followed over time by diluting an aliquot of the incubation mixture in a 1 ml assay containing 2.3 mM […] and 75 μM androsterone in 0.1 M potassium phosphate buffer, pH 7.0 containing 1 mM mercaptoethanol, with 4% acetonitrile as a cosolvent. Initial rates were determined as described in FIG. 1. Because of the 100 fold or greater dilution of the enzyme into the assay, the initial rate measured is an indication of the enzyme activity remaining at that time. Initial rates of inactivation (kapp 's) were determined from semilogarithmic plots of percent enzyme activity remaining versus time. Data was replotted (FIG. 2b) as 1 /kapp vs 1/[Inhibitor] from which kinact (the rate constant for enzyme inactivation) and Ki (the binding constant for compound (VII)) were determined.

The conditions of series [3]: in vivo; cited from earlier work.

As a reminder, the Ki is a measure of affinity in units of concentration, obtained from inhibition or displacement. In the case of `COc1ccc2c(c1)c(CC(=O)O)c(C)n2Cc1ccc(NC(=O)CBr)cc1` [Compound (VI), 1-(4-bromoacetamidobenzyl)-5-methoxy-2-methylindole-3-aceticacid], the Ki in series [1] is 15 µM. In series [2], the “t1/2 life for the enzyme at saturating inactivator concentrations” value (“t1/2 life for the enzyme” below) was determined as 40.2 s; the “Return of activity of inactivated enzyme by extensive dialysis” value (from here on “Return of activity of inactivated enzyme”) is “cannot be returned by extensive dialysis”; the “Loss of 3α-HSD activity (inactivation)” value was “time and concentration dependent loss of 3α-HSD activity”; the KI (inactivation) stood at 233 µM.

For the compound `CC(=O)Oc1ccccc1C(=O)O` [aspirin, acetyl salicylate], the “plasma t1/2 life” value in series [3] was 900 s.

`COc1ccc2c(c1)c(CC(=O)O)c(C)n2C(=O)c1ccc(Cl)cc1` [Indomethacin (I), indomethacin, reference compound] registered a Ki in series [1] of 0.835 µM.

Compound `O=C(CBr)Nc1cccc(Nc2ccccc2C(=O)O)c1` [Compound (VIII), N-(3-bromoacetamidophenyl) anthranilic acid] displayed a Ki in series [1] of 1.5 µM. In addition, in series [2], the “t1/2 life for the enzyme” value was determined as 7.1 s; the “Return of activity of inactivated enzyme” value is “cannot be returned by extensive dialysis”; the “Loss of 3α-HSD activity (inactivation)” value is “time and concentration dependent loss of 3α-HSD activity”; the KI (inactivation) turned out to be 155 µM.

In turn, `Cc1ccc(Cl)c(Nc2ccccc2C(=O)O)c1Cl` [Meclofenamate (II), meclofenamic acid, reference compound] came in with a Ki in series [1] of 1.1 µM.

In the case of `Cc1ccc(C(=O)c2ccc(CC(=O)O)n2C)cc1` [Tolmetin (IV), tolmetin, reference compound], the Ki in series [1] amounted to 29 µM. This Ki lies about 26-fold higher than the previous one.

In series [1], `O=C(CBr)Nc1ccc(Nc2ccccc2C(=O)O)cc1` [Compound (VII), N-(4-bromoacetamidophenyl) anthranilic acid] had a Ki of 2.5 µM. Besides, in series [2], the “t1/2 life for the enzyme” value was 12.1 s; the “Return of activity of inactivated enzyme” value is “cannot be returned by extensive dialysis”; the “Loss of 3α-HSD activity (inactivation)” value is “time and concentration dependent loss of 3α-HSD activity”; the KI (inactivation) was found to be 161 µM.

Values taken from patent US5187187A, “Irreversible ligands for nonsteroidal antiinflammatory drug and prostaglandin binding sites” (Trustees of the University of Pennsylvania, priority 1991, dated 1993).
